Measured values as given in patent publication US20230069886A1, “AROMATIC SULPHONAMIDES DERIVATIVES THAT INHIBITS PDI A3, THEIR SYNTHESIS AND USE” (Uniwersytet Jagiellonski, priority 2020, published 2023).
≈ marks a conversion by molar mass, not a printed value. Like-named read-outs stand apart in the source and are kept apart here.

Columns and labels:
HT-29 = experiment: MTT antiproliferative assay, 72 h, HT-29; type: cell-based, human; conditions: Homo sapiens, HT-29, 72 hours exposition, read-out: IC50 [μg/ml] HT-29 normal
Procedure: Anticancer activity of selected compounds of invention, PDI A3-inhibitors has been also tested in vitro in antiproliferative assay in normoxic and hypoxic conditions as well in estrogen-stimulated cancer cells. In the experiment, cells were seeded on 96-well plates (Sarstedt, Germany) in appropriate culture medium at a density of 10^5 cells/mL 24 h before adding the tested compounds. Cells were treated with each compound in four concentrations in the range 0.1-100 μg/mL. […] After 72 h of compound treatment at 37° C., 5% CO2 humid atmosphere and in wo different oxygen level conditions: 21%—normal and <1%—hypoxia. In some experiments the MDA-MB-231 and MCF-7 cells were seeded with or without 200 nM estradiol and after 24 h the tested compounds were added. […] Briefly, cells were fixed with 50 μL/well of 50% (w/v) trichloroacetic acid (Avantor Performance Materials, Gliwice, Poland). After 1 h incubation, plates were washed several times with tap water and 50 μL of 0.4% (w/v) solution of sulforhodamine B (Sigma-Aldrich, Germany) in 1% (v/v) acetic acid (Avantor Performance Materials, Gliwice, Poland) was added to each well. After 30 min incubation at room temperature, unbound dye was washed out with 1% (v/v) acetic acid, whereas bound dye was solubilized with 10 mM unbuffered TRIS (Avantor Performance Materials, Gliwice, Poland) solution. The entire procedure was performed using a BioTek EL-406 washing station (BioTek Instruments, USA). After additional 30 min, absorbance was read using a Biotek Hybrid H4 reader (BioTek Instruments, USA) at 540 nm wavelength. […] Absorbance was measured using a Biotek Hybrid H4 reader at 570 nm wavelength for MTT assay.
(§1) Compounds at each concentration were tested in triplicate in a single experiment and each experiment was repeated at least three times independently. Results are presented as mean IC50±SD.

human platelets = experiment: Light transmission aggregometry of collagen-stimulated human platelet-rich plasma; type: cell-based; conditions: human PRP, FIG. 2, 3
Procedure: Anti-platelet activity of compounds of invention was assessed using light transmission aggregometry assay of human platelet-rich plasma (PRP). Venous blood was obtained from male volunteers at the University Hospital Blood Bank Centre. Volunteer donors had not taken any medicines for the preceding two weeks. Blood was collected into vials containing sodium citrate (3.2%, 9:1 v/v) as an anti-coagulant agent. To obtain platelet rich plasma (PRP), blood was centrifuged at 260×g for 15 min. The platelet […] plasma fraction (used as a blank sample) was obtained by centrifugation of the remaining blood for 10 min at 2600×g. Aggregation of blood platelets was assessed in PRP with a dual channel Chronolog aggregometer (CHRONO-LOG) using a method previously described by Born^35. PRP (500 μl) was equilibrated for 2 min at 37° C. with a continuous stirring at 800 rpm and then stimulated with collagen to cause aggregation. At the beginning of each experiment, concentrations of collagen that induced sub-maximum aggregation response were determined. These concentrations were in the range of […], respectively. All the tested compounds were added 2 min prior to stimulation of platelets with collagen. Transmittance was read 6 min after stimulation of platelets with an agonist. […]

MCF-7 = experiment: MTT antiproliferative assay, 72 h, with or without estradiol, MCF-7; type: cell-based, human; conditions: for IC50: Homo sapiens, MCF7, 72 hours exposition, MTT
Procedure: (§2) Anticancer activity of selected compounds of invention, PDI A3-inhibitors has been also tested in vitro in antiproliferative assay in normoxic and hypoxic conditions as well in estrogen-stimulated cancer cells. In the experiment, cells were seeded on 96-well plates (Sarstedt, Germany) in appropriate culture medium at a density of 10^5 cells/mL 24 h before adding the tested compounds. Cells were treated with each compound in four concentrations in the range 0.1-100 μg/mL. […] After 72 h of compound treatment at 37° C., 5% CO2 humid atmosphere and in wo different oxygen level conditions: 21%—normal and <1%—hypoxia. In some experiments the MDA-MB-231 and MCF-7 cells were seeded with or without 200 nM estradiol and after 24 h the tested compounds were added. A previously described sulforhodamine B antiproliferative assay was used with minor modifications (Skehan P et al., 1990). Briefly, cells were fixed with 50 μL/well of 50% (w/v) trichloroacetic acid (Avantor Performance Materials, Gliwice, Poland). After 1 h incubation, plates were washed several times with tap water and 50 μL of 0.4% (w/v) solution of sulforhodamine B (Sigma-Aldrich, Germany) in 1% (v/v) acetic acid (Avantor Performance Materials, Gliwice, Poland) was added to each well. After 30 min incubation at room temperature, unbound dye was washed out with 1% (v/v) acetic acid, whereas bound dye was solubilized with 10 mM unbuffered TRIS (Avantor Performance Materials, Gliwice, Poland) solution. The entire procedure was performed using a BioTek EL-406 washing station (BioTek Instruments, USA). After additional 30 min, absorbance was read using a Biotek Hybrid H4 reader (BioTek Instruments, USA) at 540 nm wavelength. MTT assay was used alternatively for HL-60 cell line and in the experiment in which estrogens are added (specified in the table legend). Absorbance was measured using a Biotek Hybrid H4 reader at 570 nm wavelength for MTT assay.
as §1

[1] = system: MDA-MB-231 cell transmigration across IL-1β-stimulated hLMVECs; experiment: Transendothelial migration of MDA-MB-231 cells across hLMVEC monolayer; type: cell-based, human; conditions: IL-1β 10 ng/mL (6 hours)-stimulated hLMVECs, 24 h co-culture, FIG. 6
Procedure: To assess whether compounds of invention, PDI A3-inhibitors are also effective as inhibitors of cancer cell transmigration through endothelium the transmigration assay with MDA-MB-231/lung microvascular endothelium was used as described previously (Stojak et al., 2018). Cell migration was assayed in 24-well, 6.5-mm internal-diameter Transwell plates (8.0 μm pore size; BD Pharmingen). Human lung microvascular endothelial cells (hLMVECs) were seeded into 24-well plates (seeding density 5×10^4 cells/insert) on the upper side of the filter and left to grow to confluence. After confluent monolayer formation, hLMVECs were pre-treated with 10 ng/mL IL-1β for 6 h. Prior to use in transmigration assay, cancer cells were pre-incubated with various concentrations (3, 10, 30, 50, 100 μM) of tested inhibitors of PDIA3, C-3390, C-3399 for 30 min. Then, MDA-MB-231 cells (each 5×10^4 per well) were placed into upper chambers and tested PDI inhibitors at various concentrations (1, 10, 30, 50, 100 μM) were given. Lower chambers were filled with medium containing chemoattractant (20% FBS or 100 ng/mL SDF-1α). After 24 h of co-culture, hLMVEC monolayers and non-migrating cancer cells on the upper surface of the membrane were removed. […] The cell number was determined by measuring the fluorescence using plate reader. […]

HL-60 = experiment: MTT antiproliferative assay, 72 h, HL-60; type: cell-based, human; conditions: Homo sapiens, HL-60, 72 hours exposition, read-out: IC50 [μg/ml] HL-60 normal
Procedure: as §2, §1

MCF-10A = experiment: Selectivity index MCF-10A versus MCF-7; type: cell-based; conditions: 72 hours exposition
Procedure: as §2
Compounds at each concentration were tested in triplicate in a single experiment and each experiment was repeated at least three times independently. […]

MDA-MB-231 = experiment: MTT antiproliferative assay, 72 h, with or without estradiol, MDA-MB-231; type: cell-based, human; conditions: for IC50: Homo sapiens, MDA-MB-231, 72 hours exposition, MTT
Procedure: as §2, §1

arterial thrombosis = experiment: In vivo models of arterial thrombosis; design: species or system rat or mice; conditions: FIG. 5
Procedure: To confirm antithrombotic activity of compounds of invention, inhibitors of PDIA3, pharmacological activity of selected compounds was tested in vivo in the rat or mice model of arterial thrombosis. Wistar rats were anaesthetized with pentobarbital (40 mg/kg, i.p.) and placed in a supine position on a heated (37° C.) operating table. Arterial thrombosis was induced by electrical stimulation of the right common carotid artery, as previously described (Kramkowski et al., 2012). Briefly, the anode, a stainless steel L-shaped wire, was inserted under the artery and connected to a constant current generator. The cathode was attached subcutaneously to the hind limb. The artery was stimulated (1 mA) for 10 min. Fifty-five minutes after the beginning of stimulation, the segment of the common carotid artery containing the formed thrombus was dissected and opened lengthwise, and the thrombus was completely removed and air-dried at room temperature for 24 h. Thrombus was then weighed in a blinded manner. Antithrombotic effects of compounds of invention in mice was analyzed using intravital fluorescence confocal microscopy as described previously (Hayashi T et al., 2008). […] Changes in fluorescence intensity were measured as described previously (Hayashi T et al., 2008, Kramkowski et al., 2002)

IC50 (MCF-7; pretreated with 200 nM estradiol, read-out: IC50 [μg/ml] MCF-7 +estradiol) | IC50 (MDA-MB-231; pretreated with 200 nM estradiol, read-out: IC50 [μg/ml] MDA-MB-231 +estradiol) | SMILES | IC50 (HT-29) | Inhibition of platelet aggregation (human platelets) | IC50 (MCF-7; not pretreated with estradiol, read-out: IC50 [μg/ml] MCF-7 normal) | Lower sensitivity after treatment with estradiol in MCF-7 (MCF-7; estradiol (200 nM), Table 4) | Inhibition of MDA-MB-231 cell transmigration [1] | IC50 (HL-60) | Selectivity index (SI): IC50 of MCF-10A/IC50 of MCF-7 (MCF-10A) | IC50 (MDA-MB-231; not pretreated with estradiol, read-out: IC50 [μg/ml] MDA-MB-231 normal) | Sensitivity of MDA-MB-231 line after treatment with estradiol (MDA-MB-231; estradiol (200 nM), Table 4) | Anti-thrombotic effects in vivo (arterial thrombosis)
4.3 ± 0.3 µg/mL (≈ 12.9 µM) | 6.4 ± 1.9 µg/mL (≈ 19.1 µM) | COC(=O)C1CN1S(=O)(=O)c1ccc2c(N(C)C)cccc2c1 (stereo not drawn) [Compound C-3399, Methyl 1-[[5-(dimethylamino)-2-naphthyl]sulfonyl]aziridine-2-carboxylate] | 4.3 ± 0.2 µg/mL (≈ 12.9 µM) | lowest EC50 | 3.7 ± 0.3 µg/mL (≈ 11.1 µM) | not observed | inhibited MDA-MB-231 cell transmigration | 2.4 ± 0.3 µg/mL (≈ 7.18 µM) | 1.6 | 2.9 ± 0.3 µg/mL (≈ 8.67 µM) | slightly lower sensitivity | –
– | – | COC(=O)C1CN1S(=O)(=O)c1ccc(N(C)C)cc1 (stereo not drawn) [Compound C-3343, Methyl 1-[4-(dimethylamino)phenyl]sulfonylaziridine-2-carboxylate] | – | – | – | – | – | – | – | – | – | anti-thrombotic effects
